Test system: Heliothis virescens
Test: Activity against Heliothis virescens, foliar application (Example B3)
Type: in vivo
Details: 144 h, young soya plants sprayed, 400 ppm active ingredient, 1st instar caterpillars, 6 days, read-out: percentage reduction in the population and in the feeding damage (% activity)
Method: (§1) Young soya plants are sprayed with an aqueous emulsion spray mixture comprising 400 ppm of active ingredient and, after the spray coating has dried on, populated with 10 caterpillars (1st instar) of Heliothis virescens and introduced into a plastic container. 6 days later, the percentage reduction in the population and in the feeding damage (% activity) are determined by comparing the number of dead caterpillars and the feeding damage between the treated and untreated plants.

SMILES | inhibition at 400 ppm [%]
Cc1cc(Cl)cc(C(=O)NCc2ccccc2S(C)(=O)=NC(=O)C(F)(F)F)c1NC(=O)c1cc(C(F)(F)F)nn1-c1ncccc1Cl (centres unmarked) [T35.1.1] | > 80
Cc1cc(Cl)cc(C(=O)NCCCCCCS(C)(=N)=O)c1NC(=O)c1cc(C(F)(F)F)nn1-c1ncccc1Cl (centres unmarked) [T46.1.1] | > 80

Test system: Plutella xylostella
Test: Activity against Plutella xylostella (Example B7)
Type: in vivo
Details: 72 h, young cabbage plants sprayed, 400 ppm active ingredient, 3rd instar caterpillars, 3 days, read-out: percentage reduction in the population and in the feeding damage (% activity)
Method: as §1, with “cabbage” for “soya”, “(3rd” for “(1st”, “Plutella xylostella” for “Heliothis virescens”, “3” for “6”

SMILES | inhibition at 400 ppm [%]
Cc1cc(Cl)cc(C(=O)NCCS(C)(=N)=O)c1NC(=O)c1cc(C(F)(F)F)nn1-c1ncccc1Cl (centres unmarked) [T30.1.1] | > 80
CCS(=N)(=O)CCNC(=O)c1cc(Cl)cc(C)c1NC(=O)c1cc(C(F)(F)F)nn1-c1ncccc1Cl (centres unmarked) [T30.1.2] | > 80
Cc1cc(Cl)cc(C(=O)NCCS(C)(=O)=NC(=O)C(F)(F)F)c1NC(=O)c1cc(C(F)(F)F)nn1-c1ncccc1Cl (centres unmarked) [T31.1.1] | > 80
CCS(=O)(CCNC(=O)c1cc(Cl)cc(C)c1NC(=O)c1cc(C(F)(F)F)nn1-c1ncccc1Cl)=NC(=O)C(F)(F)F (centres unmarked) [T31.1.2] | > 80
Cc1cc(Cl)cc(C(=O)NCc2ccccc2S(C)(=N)=O)c1NC(=O)c1cc(C(F)(F)F)nn1-c1ncccc1Cl (centres unmarked) [T34.1.1] | > 80
Cc1cc(Cl)cc(C(=O)NCc2ccccc2S(C)(=O)=NC(=O)C(F)(F)F)c1NC(=O)c1cc(C(F)(F)F)nn1-c1ncccc1Cl (centres unmarked) [T35.1.1] | > 80
Cc1cc(Cl)cc(C(=O)NCCCCCCS(C)(=N)=O)c1NC(=O)c1cc(C(F)(F)F)nn1-c1ncccc1Cl (centres unmarked) [T46.1.1] | > 80

Test system: Spodoptera littoralis
Test: Activity against Spodoptera littoralis (Example B8)
Type: in vivo
Details: 72 h, young soya plants sprayed, 400 ppm active ingredient, 1st instar caterpillars, 3 days, read-out: percentage reduction in the population and in the feeding damage (% activity)
Method: as §1, with “Spodoptera littoralis” for “Heliothis virescens”, “3” for “6”

SMILES | inhibition at 400 ppm [%]
Cc1cc(Cl)cc(C(=O)NCCS(C)(=N)=O)c1NC(=O)c1cc(C(F)(F)F)nn1-c1ncccc1Cl (centres unmarked) [T30.1.1] | > 80
CCS(=N)(=O)CCNC(=O)c1cc(Cl)cc(C)c1NC(=O)c1cc(C(F)(F)F)nn1-c1ncccc1Cl (centres unmarked) [T30.1.2] | > 80
Cc1cc(Cl)cc(C(=O)NCCS(C)(=O)=NC(=O)C(F)(F)F)c1NC(=O)c1cc(C(F)(F)F)nn1-c1ncccc1Cl (centres unmarked) [T31.1.1] | > 80
CCS(=O)(CCNC(=O)c1cc(Cl)cc(C)c1NC(=O)c1cc(C(F)(F)F)nn1-c1ncccc1Cl)=NC(=O)C(F)(F)F (centres unmarked) [T31.1.2] | > 80
Cc1cc(Cl)cc(C(=O)NCc2ccccc2S(C)(=N)=O)c1NC(=O)c1cc(C(F)(F)F)nn1-c1ncccc1Cl (centres unmarked) [T34.1.1] | > 80
Cc1cc(Cl)cc(C(=O)NCc2ccccc2S(C)(=O)=NC(=O)C(F)(F)F)c1NC(=O)c1cc(C(F)(F)F)nn1-c1ncccc1Cl (centres unmarked) [T35.1.1] | > 80
Cc1cc(Cl)cc(C(=O)NCCCCCCS(C)(=N)=O)c1NC(=O)c1cc(C(F)(F)F)nn1-c1ncccc1Cl (centres unmarked) [T46.1.1] | > 80

Test system: Spodoptera littoralis
Test: Systemic insecticide test for Spodoptera littoralis (cotton leafworm) (Example B9)
Type: in vivo
Details: 96 h, maize seedlings in water with 12.5 ppm, 6 days growth, cut leaves, 1st instar larvae, 4 days, one replicate, read-out: percentage of dead (activity)
Method: Four day old maize seedlings (Zea mays, variety Stoneville) are placed individual in vials containing 24 ml water into which the chemical is diluted at 12.5 ppm. Seedlings are allowed to grow for six days. Subsequently leaves are cut and placed in a Petri dish (5 cm diameter), inoculated with twelve to fifteen 1st instar S. littoralis larvae and incubated for four days in a growth chamber (25° C., 50% r.h., 18:6 L:D photo period). Number of alive insects are counted and percentage of dead calculated. Tests were conducted with one replicate. In this test, compounds listed in the Tables above show good activity. In particular compounds T1.1.17, T1.1.89, T41.1.1, T35.1.1, T40.1.1, T30.1.1, T44.1.1, T31.1.1, T31.1.2, T30.1.2, T1.1.17, T1.1.89, T16.1.1, T36.1.1, T16.1.1, T3.7.1, T18.1.1, T43.1.1, T42.1.1, T30.1.2, T30.1.1, T40.1.1, T41.1.1, T45.1.1, T35.1.1, T1.1.73, T18.1.1, T36.1.1, T1.1.1 and T1.1.73 have an activity of over 80%.

SMILES | pest or weed control at 12.5 ppm [%]
Cc1cc(Cl)cc(C(=O)NCc2ccccc2S(C)(=O)=NC(=O)C(F)(F)F)c1NC(=O)c1cc(C(F)(F)F)nn1-c1ncccc1Cl (centres unmarked) [T35.1.1] | > 80

Same assay, conditions: in Zea mays, 96 h, read-out: percentage of dead (activity)

SMILES | pest or weed control at 12.5 ppm [%]
Cc1cc(Cl)cc(C(=O)NCCS(C)(=N)=O)c1NC(=O)c1cc(C(F)(F)F)nn1-c1ncccc1Cl (centres unmarked) [T30.1.1] | > 80
CCS(=N)(=O)CCNC(=O)c1cc(Cl)cc(C)c1NC(=O)c1cc(C(F)(F)F)nn1-c1ncccc1Cl (centres unmarked) [T30.1.2] | > 80
Cc1cc(Cl)cc(C(=O)NCCS(C)(=O)=NC(=O)C(F)(F)F)c1NC(=O)c1cc(C(F)(F)F)nn1-c1ncccc1Cl (centres unmarked) [T31.1.1] | > 80
CCS(=O)(CCNC(=O)c1cc(Cl)cc(C)c1NC(=O)c1cc(C(F)(F)F)nn1-c1ncccc1Cl)=NC(=O)C(F)(F)F (centres unmarked) [T31.1.2] | > 80

Test system: not given
Test: not given
Details: not given

SMILES | melting point [°C]
Cc1cc(Cl)cc(C(=O)NCc2ccccc2S(C)(=N)=O)c1NC(=O)c1cc(C(F)(F)F)nn1-c1ncccc1Cl (centres unmarked) [T34.1.1] | 235 to 238
Cc1cc(Cl)cc(C(=O)NCCCCCCS(C)(=N)=O)c1NC(=O)c1cc(C(F)(F)F)nn1-c1ncccc1Cl (centres unmarked) [T46.1.1] | 148 to 152
